# Measurements as given in US10617680B2 (CELGENE QUANTICEL RESEARCH, INC., priority 2017, dated 2020).
# Molecular target: CBP (Homo sapiens (Human), UniProt Q92793)
# Assay: In vitro CBP inhibition (AlphaScreen, biotinylated H4-tetraacetyl peptide)
# Format: binding
# Conditions: not given
# Summary of the method: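 His-tagged CBP expressed in E. coli (50 nM final) incubated with biotinylated H4K5/8/12/16(Ac) peptide (20 nM final) in 50 mM HEPES pH 7.3, 10 mM NaCl, 0.25 mM TCEP, 0.1% BSA, 0.005% Brij-35, 0.4% DMSO, 20 min at room temp.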
# Sequence of CBP (Q92793 1081-1197): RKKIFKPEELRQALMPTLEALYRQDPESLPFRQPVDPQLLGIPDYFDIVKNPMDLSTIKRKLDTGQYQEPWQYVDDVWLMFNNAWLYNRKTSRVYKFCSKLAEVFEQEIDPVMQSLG
row,Structure (SMILES),IC50
1,"Cc1ccccc1-c1cc(=O)n(C)cc1-c1cnn(Cc2ccccc2)c1 [Example 106, 5-(1-benzyl-1H-pyrazol-4-yl)-1-methyl-4-o-tolyl-1H-pyridin-2-one]",500 to 5000 nM

# Same assay, conditions: AlphaScreen, Table 29; read-out: CBP IC50
row,Structure (SMILES),IC50
1,"Cn1cc(-c2cnn(-c3cccc(Cl)c3C#N)c2)c(-c2ccc(NCC3CC3)nc2)cc1=O [Example 348, 2-chloro-6-(4-{6-[(cyclopropylmethyl)amino]-1′-methyl-6′-oxo-1′,6′-dihydro-[3,4′-bipyridine]-3′-yl}-1H-pyrazol-1-yl)benzonitrile]",< 500 nM
2,"CCOc1cc(=O)n(C)cc1-c1cnn(-c2cc(OC3CC3)ccc2C(=O)O)c1 [Example 248, 4-Cyclopropoxy-2-[4-(4-ethoxy-1-methyl-6-oxo-1,6-dihydro-pyridin-3-yl)-pyrazol-1-yl]-benzoic acid]",< 500 nM
3,"Cn1ccc(-c2cc(=O)n(C)cc2-c2cnn(-c3ccccc3C#N)c2)cc1=O [Example 221, 2-[4-(1,1′-Dimethyl-6,2′-dioxo-1,6,1′,2′-tetrahydro-[4,4′]bipyridinyl-3-yl)-pyrazol-1-yl]-benzonitrile]",< 500 nM
4,"CC(c1ccccc1)n1cc(-c2cn(C)c(=O)cc2Cl)cn1 (stereo not drawn) [Example 38, 4-chloro-1-methyl-5-(1-(1-phenyl-ethyl)-1H-pyrazol-4-yl) pyridin-2(1H)-one]",< 500 nM
5,"CCOc1cc(=O)n(C)cc1-c1cnn(-c2ccccc2S(C)(=O)=O)c1 [Example 180, 4-Ethoxy-5-[1-(2-methanesulfonyl-phenyl)-1H-pyrazol-4-yl]-1-methyl-1H-pyridin-2-one]",< 500 nM
6,"Cn1cc(-c2cnn(-c3cccc(F)c3C#N)c2)c(-c2ccc(OC3CC3)nc2)cc1=O [Example 362, 2-[4-[4-[6-(cyclopropoxy)-3-pyridyl]-1-methyl-6-oxo-3-pyridyl)pyrazol-1-yl]-6-fluoro-benzonitrile]",< 500 nM
7,"Cn1cc(-c2cc(=O)n(C)cc2-c2cnn(-c3ccccc3C(=O)NC#N)c2)cn1 [Example 289, N-cyano-2-(4-(1-methyl-4-(1-methyl-1H-pyrazol-4-yl)-6-oxo-1,6-dihydropyridin-3-yl)-1H-pyrazol-1-yl)benzamide]",< 500 nM
8,CCNc1ncc(-c2cc(=O)n(C)cc2-c2cnn(C(C)c3ccccc3)c2)cn1 (stereo not drawn) [Example 311],< 500 nM
9,"Cn1cc(-c2cnn(-c3cccc(Cl)c3C#N)c2)c(-c2ccc(OC3CC3)nc2)cc1=O [Example 364, 2-chloro-6-[4-[4-[6-(cyclopropoxy)-3-pyridyl]-1-methyl-6-oxo-3-pyridyl]pyrazol-1-yl]benzonitrile]",< 500 nM
10,"Cc1cccc(-c2cc(=O)n(C)cc2-c2cnn(Cc3ccccc3)c2)c1 [Example 111, 5-(1-benzyl-1H-pyrazol-4-yl)-1-methyl-4-(m-tolyl)-pyridin-2(1H)-one]",< 500 nM
11,"CCOC(=O)c1c(-c2cc(C)c(=O)n(C)c2)cnn1Cc1ccccc1 [Example 199, 2-Benzyl-4-(1,5-dimethyl-6-oxo-1,6-dihydro-pyridin-3-yl)-2H-pyrazole-3-carboxylic acid ethyl ester]",< 500 nM
12,"Cn1cc(-c2cnn(Cc3ccccc3)c2)c(N2CCC(S(C)(=O)=O)C2)cc1=O (stereo not drawn) [Example 37, 5-(1-Benzyl-1H-pyrazol-4-yl)-4-(3-methanesulfonyl-pyrrolidin-1-yl)-1-methyl-1H-pyridin-2-one]",< 500 nM
13,"COc1cccc(C(C)n2cc(-c3ccc(=O)n(C)c3)cn2)c1 (stereo not drawn) [Example 28, 5-(1-(1-(3-methoxy-phenyl)ethyl)-1H-pyrazol-4-yl)-1-methyl-pyridin-2(1H)--one]",< 500 nM
14,"Cn1cc(-c2cn(C)c(=O)cc2-c2ccccc2)cn1 [Example 107, 1-methyl-5-(1-methyl-1H-pyrazol-4-yl)-4-phenylpyridin-2(1H)-one]",< 500 nM
15,"CCOc1cc(=O)n(C)cc1-c1cnn(-c2ccccc2)c1 [Example 96, 4-ethoxy-1-methyl-5-(1-phenyl-1H-pyrazol-4-yl) pyridin-2(1H)-one]",< 500 nM
16,"Cn1cc(-c2cnn(Cc3ccccn3)c2)ccc1=O [Example 5, 1-methyl-5-(1-(pyridin-2-ylmethyl)-1H-pyrazol-4-yl)pyridin-2(1H)-one]",500 to 5000 nM
17,"Cn1cc(-c2cc(=O)n(C)cc2-c2cnn(CC3CC3(F)F)c2)cn1 (stereo not drawn) [Example 192, 5-[1-(2,2-Difluoro-cyclopropylmethyl)-1H-pyrazol-4-yl]-1-methyl-4-(1-methyl-1H-pyrazol-4-yl)-1H-pyridin-2-one]",< 500 nM
18,"Cn1cc(-c2cnn(-c3cccc(Cl)c3C#N)c2)c(-c2ccc(C(F)(F)F)nc2)cc1=O [Example 370, 2-chloro-6-(4-(1′-methyl-6′-oxo-6-(trifluoromethyl)-1′,6′-dihydro-[3,4′-bipyridin]-3′-yl)-1H-pyrazol-1-yl)benzonitrile]",< 500 nM
19,"CCc1cc(-c2cnn(-c3ccccc3C(=O)O)c2)cn(C)c1=O [Example 257, 2-[4-(5-Ethyl-1-methyl-6-oxo-1,6-dihydro-pyridin-3-yl)-pyrazol-1-yl]-benzoic acid]",500 to 5000 nM
20,"Cc1c(-c2cnn(Cc3ccccc3)c2)ccc(=O)n1C [Example 195, 5-(1-Benzyl-1H-pyrazol-4-yl)-1,6-dimethyl-1H-pyridin-2-one]",> 5000 nM

# Continued, values first:
row,IC50,Structure (SMILES)
1,< 500 nM,"CN(C)C(=O)Cn1cc(-c2cn(C)c(=O)cc2-c2ccccc2)cn1 [Example 135, N,N-dimethyl-2-(4-(1-methyl-6-oxo-4-phenyl-1,6-dihydropyridin-3-yl)-1H-pyrazol-1-yl)acetamide]"
2,< 500 nM,"Cn1cc(-c2cnn(CCN3CCOCC3)c2)c(-c2ccccc2)cc1=O [Example 130, 1-methyl-5-(1-(2-morpho-linoethyl)-1H-pyrazol-4-yl)-4-phenylpyridin-2(1H)-one]"
3,< 500 nM,"COc1ccc(C(=O)O)c(-n2cc(-c3cn(C)c(=O)cc3-c3ccc(OC)nc3)cn2)c1 [Example 270, 4-Methoxy-2-[4-(6-methoxy-1′-methyl-6′-oxo-1′,6′-dihydro-[3,4′]bipyridinyl-3∝-yl)-pyrazol-1-yl]-benzoic acid]"
4,< 500 nM,"Cn1cc(-c2cnn(-c3cccc(Cl)c3C#N)c2)c(-c2cnc(N3CCOCC3)nc2)cc1=O [Example 335, 2-chloro-6-(4-(1-methyl-4-(2-morpholinopyrimidin-5-yl)-6-oxo-1,6-dihydropyridin-3-yl)-1H-pyrazol-1-yl)benzonitrile]"
5,< 500 nM,"Cn1cc(-c2cnn(-c3ccccc3-c3nnn[nH]3)c2)c(C2CC2)cc1=O [Example 301, 4-Cyclopropyl-1-methyl-5-{1-[2-(1H-tetrazol-5-yl)-phenyl]-1H-pyrazol-4-yl}-1H-pyridin-2-one]"
6,500 to 5000 nM,Cn1cc(-c2cc(=O)n(C)cc2-c2cnn(-c3ccccc3S(C)(=O)=O)c2)ccc1=O [Example 287]
7,< 500 nM,"CCOc1cc(=O)n(C)cc1-c1cnn(-c2cccc(C(C)C)c2C#N)c1 [Example 176, 2-[4-(4-Ethoxy-1-methyl-6-oxo-1,6-dihydro-pyridin-3-yl)-pyrazol-1-yl]-6-isopropyl-benzonitrile]"
8,< 500 nM,"CCOc1cc(=O)n(C)cc1-c1cnn(C(C)c2ccc(C)cc2)c1 (stereo not drawn) [Example 62, 4-ethoxy-1-methyl-5-(1-(1-(p-tolyl)ethyl)-1H-pyrazol-4-yl) pyridin-2(1H)-one]"
9,< 500 nM,"COc1cc(-c2cc(=O)n(C)cc2-c2cnn(-c3cccc(Cl)c3C#N)c2)ccc1C [Example 279, 2-chloro-6-(4-(4-(3-methoxy-4-methylphenyl)-1-methyl-6-oxo-1,6-dihydropyridin-3-yl)-1H-pyrazol-1-yl)benzonitrile]"
10,< 500 nM,"CN(C)c1ccc(-c2cc(=O)n(C)cc2-c2cnn(-c3cccc(Cl)c3C#N)c2)cn1 [Example 345, 2-chloro-6-{4-[6-(dimethylamino)-1′-methyl-6′-oxo-1′,6′-dihydro-[3,4′-bipyridine]-3′-yl]-1H-pyrazol-1-yl}benzonitrile]"
11,< 500 nM,"Cn1cc(-c2cnn(-c3ccccc3C#N)c2)c(-c2ccc(F)cc2)cc1=O [Example 215, 2-{4-[4-(4-Fluoro-phenyl)-1-methyl-6-oxo-1,6-dihydro-pyridin-3-yl]-pyrazol-1-yl}-benzonitrile]"
12,< 500 nM,"Cc1nn(C)cc1-c1cn(C)c(=O)cc1-c1ccccc1 [Example 136, 5-(1,3-dimethyl-1H-pyrazol-4-yl)-1-methyl-4-phenylpyridin-2(1H)-one]"
13,< 500 nM,"Cn1cc(-c2cn(C)c(=O)cc2-n2cccc2)cn1 [Example 83, 1-methyl-5-(1-methyl-1H-pyrazol-4-yl)-4-(1H-prrol-1-yl) pyridin-2(1H)-one]"
14,< 500 nM,"COc1ccc(-c2cc(=O)n(C)cc2-c2cnn(C(C)c3ccccc3)c2)cn1 (stereo not drawn) [Example 308, 6-methoxy-1′-methyl-5′-(1-(1-phenylethyl)-1H-pyrazol-4-yl)-[3,4′-bipyridin]-2′(1′H)-one]"
15,< 500 nM,"CC(C)c1ccc(-c2cc(=O)n(C)cc2-c2cnn(-c3cccc(Cl)c3C#N)c2)cn1 [Example 376, 2-chloro-6-[4-[4-(6-isopropyl-3-pyridyl)-1-methyl-6-oxo-3-pyridyl]pyrazol-1-yl]benzonitrile]"
16,< 500 nM,"Cn1cc(-c2cnn(-c3cccc(F)c3C#N)c2)c(-c2ccc(NCC3CC3)nc2)cc1=O [Example 346, 2-(4-{6-[(cyclopropylmethyl)amino]-1′-methyl-6′-oxo-1′,6′-dihydro-[3,4′-bipyridine]-3′-yl}-1H-pyrazol-1-yl)-6-fluorobenzonitrile]"
17,< 500 nM,"Cn1cc(-c2cnn(-c3cccc(F)c3C#N)c2)c(-c2ccc(C(F)(F)F)nc2)cc1=O [Example 368, 2-fluoro-6-(4-(1′-methyl-6′-oxo-6-(trifluoromethyl)-1′,6′-dihydro-[3,4′-bipyridin]-3′-yl)-1H-pyrazol-1-yl)benzonitrile]"
18,< 500 nM,"Cc1cc(-c2cc(=O)n(C)cc2-c2cnn(-c3ccccc3C#N)c2)cn(C)c1=O [Example 239, 2-(4-(1,1′,5-trimethyl-6,6′-dioxo-1,1′,6,6′-tetrahydro-[3,4′-bipyridin]-3′-yl)-1H-pyrazol-1-yl)benzonitrile]"
